In publication PMC10515640, “Structure-Based Optimization of Covalent, Small-Molecule Stabilizers of the 14-3-3σ/ERα Protein–Protein Interaction from Nonselective Fragments” (Journal of the American Chemical Society, 2023):

Columns and labels:
14-3-3σ/ERα [1] = molecular target: T1, 14-3-3σ/ERα (Homo sapiens, UniProt P03372+P31947); experiment: Mass spectrometry dose response, compound binding to 14-3-3σ in the presence of ERα phosphopeptide; conditions: 100 nM compound, 100 nM 14-3-3σ, ERα-peptide 2 µM
T1 construct: The 14-3-3 σ isoform (full-length for mass spectrometry and fluorescence anisotropy assays, ΔC for crystallography); made in house; host or cells: E. coli Rosetta 2(DE3)pLysS, pPROEX HTb vector
Text: (§1) Two orthogonal assays were developed for screening. For the primary assay, mass spectrometry (MS) was used to monitor the formation of the covalent bond between the compound and the native cysteine (Cys38 on 14-3-3σ) (Figure 1D). The assay was first performed in the absence of peptide to determine binding to 14-3-3σ only (apo screening, D1) and then in the presence of both 14-3-3σ and the peptide as an indication of how much the peptide stabilized compound binding (D2). […] As a secondary assay, fluorescence anisotropy (FA) was used. In this case, compounds were titrated to mixtures of 14-3-3σ and FAM-labeled peptides. […] Thus, the two assays are highly complementary; the MS assay reports on compound binding and the FA assay reports on peptide binding. […]
(§2) Mass spectrometry dose response assays were performed on a Waters Acquity UPLC/ Xevo G2-XS Q-Tof mass spectrometer. A Waters UPLC Protein BEH-C4 Column (300 Å, 1.7 μm, 2.1 mm x 50 mm) was used to desalt the samples prior to application on the mass spectrometer. For 19-point MS dose responses, 50 mM compound stocks in DMSO were serially diluted in 3-fold increment in a master plate, then 1000 nl of the compounds were transferred in the assay plates. Master mixes containing 100 nM full-length wild type 14-3-3σ in the absence or presence of […]
(§3) Assay buffer was TRIS (10 mM, pH 8.0) and final volume per well was 50 μl, with final top concentration of compounds dose response series at 1 mM. The reaction mixtures were incubated for 1h at rt before subjected to MS. Four measurements (1h, 8h, 16h, 24h) were performed for time-course experiments. The injection volume for each sample was 6 μl. 24 μl of sample were needed for the time-course experiments, so the total volume in the assay plate was adjusted to 50 μl, to account for the dead volume in the injections. Data collection and automated processing followed a custom workflow, as previously described.1 z Plots were created using GraphPad Prism with the log(agonist) vs. response (variable slope, four parameters) fitting model. […]

14-3-3σ/C-RAF [2] = molecular target: T2, 14-3-3σ/C-RAF (Homo sapiens, UniProt P31947); experiment: Mass spectrometry dose response, compound binding to 14-3-3σ in the presence of C-RAF phosphopeptide; conditions: 100 nM compound, 100 nM 14-3-3σ, C-RAF peptide 18 µM
T2 construct: The 14-3-3 σ isoform (full-length for mass spectrometry and fluorescence anisotropy assays, ΔC for crystallography); made in house; host or cells: E. coli Rosetta 2(DE3)pLysS, pPROEX HTb vector
T2 sequence (P31947 1-248): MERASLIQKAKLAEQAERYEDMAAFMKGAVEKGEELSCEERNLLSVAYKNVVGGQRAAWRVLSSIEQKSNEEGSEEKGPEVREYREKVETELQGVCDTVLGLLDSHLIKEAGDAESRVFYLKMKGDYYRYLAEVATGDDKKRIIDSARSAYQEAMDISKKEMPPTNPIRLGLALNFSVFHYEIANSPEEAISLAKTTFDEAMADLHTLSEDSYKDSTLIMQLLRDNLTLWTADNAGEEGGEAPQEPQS
Text: as §1, §2, §3

14-3-3σ/C-RAF [3] = molecular target: T2, 14-3-3σ/C-RAF; experiment: Fluorescence anisotropy compound titration, FAM-labeled C-RAF peptide; assay type: binding; conditions: 10 nM C-RAF-FAM labeled peptide, 5 µM 14-3-3σ, overnight incubation; read-out: EC50 value C-RAF (FA compound titration)
Text: as §1
(§4) diluted in buffer (10 mM HEPES, pH 7.5, 150 mM NaCl, 0.1% Tween20, 1 mg/mL Bovine Serum Albumin (BSA; Sigma-Aldrich). Final DMSO in the assay was always 1%. Dilution series of 14-3-3 proteins or compounds were made in […]
(§5) Compound titrations were made by titrating the compound in a 2-fold dilution series (starting at 500 or 1000 µM) to a mix of fluorescein-labeled peptide (10 nM) and 14-3-3σ (concentration at approximately the EC20 to EC30 value of the protein-peptide complex; 1 µM for ERα and 5 µM for C-RAF). Using the ~EC25 value makes the assay sensitive for measuring an increase in PPI formation. Fluorescence anisotropy measurements were performed directly and after overnight incubation at room temperature. […]
(§6) Wells containing only FAM-peptide were used to set as G-factor at 35 mP. Data reported are at endpoint. EC50 and apparent Kd values were obtained from fitting the data with a four-parameter logistic model (4PL) in GraphPad Prism 7 for Windows. Data was obtained and averaged based on either three (compound titrations) or two (protein titrations) independent experiments.

14-3-3σ/ERα [4] = molecular target: T1, 14-3-3σ/ERα; experiment: Fluorescence anisotropy compound titration, FAM-labeled ERα peptide; assay type: binding; conditions: 10 nM ERα-FAM labeled peptide, 1 µM 14-3-3σ, overnight incubation (24 h); read-out: EC50 value ERα (FA compound titration)
Text: as §1, §4, §5, §6

14-3-3σ = molecular target: T3, 14-3-3σ (Homo sapiens, UniProt P31947); experiment: Mass spectrometry dose response, compound binding to 14-3-3σ in the absence of peptide (apo); conditions: 100 nM compound, 100 nM 14-3-3σ
T3 construct: The 14-3-3 σ isoform (full-length for mass spectrometry and fluorescence anisotropy assays, ΔC for crystallography); made in house; host or cells: E. coli Rosetta 2(DE3)pLysS, pPROEX HTb vector
T3 sequence (P31947 1-248): T2 sequence (P31947 1-248)
Text: as §1, §2, §3

SMILES	Percentage (%) bound of compound to 14-3-3σ, ERα 1h (14-3-3σ/ERα [1]) [%]	Percentage (%) bound of compound to 14-3-3σ, ERα 8h (14-3-3σ/ERα [1]) [%]	Percentage (%) bound of compound to 14-3-3σ, ERα 16h (14-3-3σ/ERα [1]) [%]	Percentage (%) bound of compound to 14-3-3σ, ERα 24h (14-3-3σ/ERα [1]) [%]	Percentage (%) bound of compound to 14-3-3σ, CRAF 1h (14-3-3σ/C-RAF [2]) [%]	Percentage (%) bound of compound to 14-3-3σ, CRAF 8h (14-3-3σ/C-RAF [2]) [%]	Percentage (%) bound of compound to 14-3-3σ, CRAF 24h (14-3-3σ/C-RAF [2]; 24h) [%]	Percentage (%) bound of compound to 14-3-3σ, CRAF 24h (14-3-3σ/C-RAF [2]; head prints 24h) [%]	EC50 (14-3-3σ/C-RAF [3]) [µM]	EC50 (14-3-3σ/ERα [4]) [µM]	Percentage (%) bound of compound to 14-3-3σ, APO 1h (14-3-3σ) [%]	Percentage (%) bound of compound to 14-3-3σ, APO 8h (14-3-3σ) [%]	Percentage (%) bound of compound to 14-3-3σ, APO 16h (14-3-3σ) [%]	Percentage (%) bound of compound to 14-3-3σ, APO 24h (14-3-3σ) [%]
O=C(CCl)NCC1CC2(CCN(C(=O)C3(Nc4ccc(Cl)cc4)CCOCC3)CC2)C1 [compound 174]	5.0	5.0	8.4	41.4	0.6	0.7	2.1	1.6	> 150	97 ± 9	1.0	1.0	1.5	3.0
O=C(CCl)NCC1CCN(C(=O)C2(Oc3ccc(Cl)cc3)CC2)CC1 [compound 93]	0	0.9	1.1	1.7	0.1	0.1	2.3	0.1	> 150	68 ± 2	0	0	0	0
CC(C)(Oc1ccc(Cl)cc1)C(=O)N1CCC(NC(=O)CCl)CC1 [compound 26]	0	0	0	1.8	0.0	1.0	4.3	2.6	> 150	> 150	0	0	0	0
NC1CCC(Oc2ccc(Cl)cc2)(C(=O)N2CCC(CNC(=O)CCl)CC2)CC1 (stereo not shown) [compound 135]	11.3	22.2	42.2	64.2	0.5	1.8	3.4	2.6	> 150	37 ± 5	0.8	0.9	1.8	2.4

Results, then the compound that gave them:

Percentage (%) bound of compound to 14-3-3σ, ERα 1h (14-3-3σ/ERα [1]) [%]	Percentage (%) bound of compound to 14-3-3σ, ERα 8h (14-3-3σ/ERα [1]) [%]	Percentage (%) bound of compound to 14-3-3σ, ERα 16h (14-3-3σ/ERα [1]) [%]	Percentage (%) bound of compound to 14-3-3σ, ERα 24h (14-3-3σ/ERα [1]) [%]	Percentage (%) bound of compound to 14-3-3σ, CRAF 1h (14-3-3σ/C-RAF [2]) [%]	Percentage (%) bound of compound to 14-3-3σ, CRAF 8h (14-3-3σ/C-RAF [2]) [%]	Percentage (%) bound of compound to 14-3-3σ, CRAF 24h (14-3-3σ/C-RAF [2]; 24h) [%]	Percentage (%) bound of compound to 14-3-3σ, CRAF 24h (14-3-3σ/C-RAF [2]; head prints 24h) [%]	EC50 (14-3-3σ/C-RAF [3]) [µM]	EC50 (14-3-3σ/ERα [4]) [µM]	Percentage (%) bound of compound to 14-3-3σ, APO 1h (14-3-3σ) [%]	Percentage (%) bound of compound to 14-3-3σ, APO 8h (14-3-3σ) [%]	Percentage (%) bound of compound to 14-3-3σ, APO 16h (14-3-3σ) [%]	Percentage (%) bound of compound to 14-3-3σ, APO 24h (14-3-3σ) [%]	SMILES
16.5	31.4	58.4	82.6	0.4	0.6	2.6	1.9	> 150	30 ± 1	0.9	2.0	2.4	4.8	Cl.O=C(CCl)NCC1CCN(C(=O)C2(Oc3ccc(Cl)cc3)CCNCC2)CC1 [compound 129]
6.9	8.6	48.4	76.6	0.4	1.9	8.4	3.8	> 150	16 ± 1	0	0	1.0	5.8	O=C(CCl)N1CC2(CCN(C(=O)C3(Nc4ccc(Cl)cc4)CCOCC3)CC2)C1 [compound 160]
1.4	6.4	14.6	30.6	4.1	10.6	28.3	19.2	16 ± 4	19 ± 1	0.0	1.0	1.4	2.0	CC(C)(Oc1ccc(Cl)cc1)C(=O)N1CCC(CNC(=O)CCl)CC1 [compound 27]
1.5	3.0	6.4	11.8	0	0	1.0	0	> 150	23 ± 2	0	0	0.3	0.4	CC1(C)CC(Nc2ccc(Cl)cc2)(C(=O)N2CCC(CNC(=O)CCl)CC2)CC(C)(C)O1 [compound 179]
